Patent US20210371899A1, “METHOD AND KIT FOR […], AND PLASMID, BACULOVIRUS, CELL AND METHOD OF PREPARING THE SAME FOR PESTICIDE DETECTIONS” (priority 2018, published 2021)
Where two headings read alike, the source gives them in different places.

Assays:
[1] = molecular target: T1, AChE-FL (full-length AChE Y408F displayed on Hi5 cells) (Drosophila melanogaster, UniProt P07140, R99G/Y408F); experiment: Inhibition of cell-surface displayed AChE-FL (Ellman's method, ATCh/DTNB, 412 nm); assay type: biochemical
T1 construct: honeybee mellitin signal peptide (HM) (N); expressed in transfected cells; host or cells: Trichoplusia ni High Five (Hi5) cells infected with recombinant baculovirus vAChE-FL, lyophilised in the plate
Experimental: (§1) Hi5 cells were infected with AChE-FL-bac (FL), AChE-6MC-bac (6MC) or WT-bac (WT) respectively, for 3 days. After the removal of media, the cells were subjected to a 5-hour lyophilization in the 96-well plates. Two OP and two CB insecticide compounds were serial-diluted and added to the infected cell samples, as well as a 100 mU/mL AChE (ST, Abcam) in 96-well plates and the commercialized AChE (Sichen) in cuvette for a further comparison. AChE activities were analyzed for all these sample in order to determine the sensitivities of these AChE to different insecticides. DMSO with different concentrations in DPBS were added to determine the background effects. Pesticides tested are: (a) paraoxon ethyl, (b) malaoxon, (c) carbofuran (d) carbaryl.
(§2) AChE activity was determined by Ellman's method. For each 96-well, 50 μl of 3 mM ATCh and 50 μl of 3 mM Ellman's reagent DTNB solution was added. After 10 minutes of incubation at room temperature, average absorbance at 412 nm was determined. […] The diluted solutions were then added individually into 96-well microplates with Hi5 cells infected by the seven recombinant viruses (vDmAChE, vHsAChE, vRnAChE, vAmAChE, vSfAChE, DamAChE, and vBdAChE). After incubation for 10 minutes, substrate ATCh and DTNB solution were added to the reaction mixture. After 10 minutes of incubation at room temperature, residual activity was determined with a microplate reader at 412 nm.
(§3) The acetylcholinesterase stock solution was diluted into 50 units/mL in assay buffer at ratio 1:50 to generate 1000 mU/mL acetylcholinesterase standard solution. Then, the 1000 mU/mL acetylcholinesterase standard solution was further diluted into 300, 100, 30, 10, 3, 1 and 0 mU/mL for determining the average absorbance of each standard. The reading of each standard was plotted as a function of the amount of acetylcholinesterase to establish a standard curve, and the corresponding amount of AChE in each test samples was calculated by the derived linear equation. […]
(§4) The remaining activity of AChE is evaluated by the following equation: […]
(§5) In which, ΔA0 indicates the change of absorbance of the positive control, and ΔAS indicates the change of absorbance of the applied pesticide incubated solution.
(§6) As for a comparison, the test results using the most common AChE insecticide diagnostic kit in Taiwan sold by Sichen Inc. were also included, and the IC50 for all of the test samples were also calculated (Table 1). For Sichen, since they acquire the AChE from fly, also they have to use cuvette (1 mL) for measurement, thus high quantity of AChE should be used. […] 96-well plate was applied, which requires only 100 μL solution for detection, and easily to handle, and can be read by bare eye for the detection of residue pesticides.

[2] = molecular target: AChE (Abcam) (UniProt O42275); experiment: Inhibition of purified standard AChE (Abcam); assay type: biochemical
Experimental: AChE activity was determined by Ellman's method. For each 96-well, 50 μl of 3 mM ATCh and 50 μl of 3 mM Ellman's reagent DTNB solution was added. After 10 minutes of incubation at room temperature, average absorbance at 412 nm was determined. […] The diluted solutions were then added individually into 96-well microplates with Hi5 cells infected by the seven recombinant viruses (vDmAChE, vHsAChE, vRnAChE, vAmAChE, vSfAChE, DamAChE, and vBdAChE). […] After 10 minutes of incubation at room temperature, residual activity was determined with a microplate reader at 412 nm.

[3] = molecular target: T2, AChE-6MC (truncated AChE Y408F fused with TM and CTD of baculovirus GP64, displayed on Hi5 cells) (Drosophila melanogaster, UniProt P07140, R99G/Y408F); experiment: Inhibition of cell-surface displayed AChE-6MC (Ellman's method, ATCh/DTNB, 412 nm); assay type: biochemical
T2 construct: honeybee mellitin signal peptide (HM) (N); expressed in transfected cells; host or cells: Trichoplusia ni High Five (Hi5) cells infected with recombinant baculovirus vAChE-6MC, lyophilised in the plate
Experimental: as §1, §2, §3, §4, §5, §6

[4] = molecular target: commercialized AChE (Sichen) (Musca domestica, UniProt Q7YWJ9); experiment: Inhibition of commercial AChE kit (Sichen), cuvette; assay type: biochemical, fly
Experimental: as §1
Acetylcholinesterase Assay Kit (standard AChE) was purchased from Abcam. Rapid Bioassay of Pesticides Residues Reagent Kit (commercial AChE) was purchased from Sichen.
The acetylcholinesterase stock solution was diluted into 50 units/mL in assay buffer at ratio 1:50 to generate 1000 mU/mL acetylcholinesterase standard solution. Then, the 1000 mU/mL acetylcholinesterase standard solution was further diluted into 300, 100, 30, 10, 3, 1 and 0 mU/mL for determining the average absorbance of each standard. The reading of each standard was plotted as a function of the amount of acetylcholinesterase to establish a standard curve, and the corresponding amount of AChE in each test samples was calculated by the derived linear equation. To calculate the inhibition of AChEs activity (%), vCont-Bac infected cells (without expression of AChE on the surface) served as the negative control, whereas Abcam purified protein, Sichen commercial protein, vAChE-FL and vAChE-6MC infected cells without pesticide incubation served as the positive control. The activity of the positive control was considered 100%.
The remaining activity of AChE is evaluated by the following equation:
Inhibition of AChEs activity (%)(ΔA0−ΔAS)/ΔA0)×100
as §5
As for a comparison, the test results using the most common AChE insecticide diagnostic kit in Taiwan sold by Sichen Inc. were also included, and the IC50 for all of the test samples were also calculated (Table 1). For Sichen, since they acquire the AChE from fly, also they have to use cuvette (1 mL) for measurement, thus high quantity of AChE should be used. […] In the present application, however, there are no need for fly rearing and no need for AChE purification. 96-well plate was applied, which requires only 100 μL solution for detection, and easily to handle, and can be read by bare eye for the detection of residue pesticides.

[5] = Hi5 cells infected with vAChE-FL, 3 days, lyophilized 5 h, 96-well plate, read-out: IC50 of OP and CB towards AChEs, AChE-FL
[6] = Hi5 cells infected with vAChE-6MC, 3 days, lyophilized 5 h, 96-well plate, read-out: IC50 of OP and CB towards AChEs, AChE-6MC
[7] = commercialized AChE kit, cuvette (1 mL), read-out: IC50 of OP and CB towards AChEs, Sichen
[8] = read-out: IC50 of OP and CB towards AChEs, Abcam; 100 mU/mL purified AChE standard, 96-well plate

Row | SMILES | IC50 [1, 5] [nM] | IC50 ([2]; 100 mU/mL purified AChE standard, 96-well plate; read-out: IC50 of OP and CB towards AChEs, Abcam) [nM] | IC50 [3, 6] [nM] | IC50 [4, 7] [nM] | IC50 [1] [nM] | IC50 [2, 8] [nM] | IC50 [3] [nM] | IC50 [4] [nM]
1 | CNC(=O)Oc1cccc2c1OC(C)(C)C2 [Carbofuran, carbofuran] | 48000 | 540 | 4500 | 2800 |  |  |  | 
2 | CCOC(=O)CC(SP(=O)(OC)OC)C(=O)OCC (stereo not drawn) [Malaoxon, malaoxon] |  |  |  |  | 560 | 820 | 62 | 950
3 | CCOP(=O)(OCC)Oc1ccc([N+](=O)[O-])cc1 [Paraoxon ethyl, paraoxon ethyl] | 490 |  | 55 | 2300 |  |  |  | 
4 | CNC(=O)Oc1cccc2ccccc12 [Carbaryl, carbaryl] |  |  |  |  | 6800 | 6500 | 650 | 5900
